Results taken from patent US11266604B2 (ALAYA (SHANGHAI) BIOSCIENCE CO., LTD, priority 2015, dated 2022).
“Also recorded” adds a separate entry of the source.

How the values were obtained:
Propionibacterium acnes = experiment: Antibacterial activity of nanoparticles versus free fatty acid in aqueous system (PBS); type: cell-based
Source text: (§1) The present inventors further tested the antibacterial activity of the nanoparticles of the present invention and free fatty acids in an aqueous system.

H. pylori = experiment: as above; type: cell-based, Helicobacter pylori; settings: same concentration (0.3% w/v)
Source text: as §1

| SMILES | bactericidal effect on Propionibacterium acnes in aqueous system (Propionibacterium acnes) | bactericidal activity against H. pylori in aqueous system (H. pylori) |
| --- | --- | --- |
| CCCCCCCCCCCC(=O)O [free lauric acid, lauric acid] | almost no bactericidal effect |  |
| CCCC/C=C\CCCCCCCC(=O)O [free myristoleic acid, myristoleic acid] |  | does not exhibit activities against H. pylori; also recorded: did not show bactericidal activity |
